From article PMC4627794, “Non-Selective Cannabinoid Receptor Antagonists, Hinokiresinols Reduce Infiltration of Microglia/Macrophages into Ischemic Brain Lesions in Rat via Modulating 2-Arachidonolyglycerol-Induced Migration and Mitochondrial Activity” (PLoS ONE, 2015)

Legend:
[1] = molecular target: T1, hCB2R (human CB2R) (Homo sapiens, UniProt P34972); test: competition radioligand binding, [3H]CP-55, […]
T1 construct: gene CNR2; full-length receptor stably expressed in CHO cells

[2] = molecular target: T2, CB1R (U2 OS cells, reporter gene assay) (Homo sapiens, UniProt P21554); test: SRE-luciferase reporter gene assay, agonism; assay type: cell-based; conditions: agonist mode
T2 construct: gene CNR1; receptor stably expressed in U2 OS cells
T2 sequence (P21554 whole entry): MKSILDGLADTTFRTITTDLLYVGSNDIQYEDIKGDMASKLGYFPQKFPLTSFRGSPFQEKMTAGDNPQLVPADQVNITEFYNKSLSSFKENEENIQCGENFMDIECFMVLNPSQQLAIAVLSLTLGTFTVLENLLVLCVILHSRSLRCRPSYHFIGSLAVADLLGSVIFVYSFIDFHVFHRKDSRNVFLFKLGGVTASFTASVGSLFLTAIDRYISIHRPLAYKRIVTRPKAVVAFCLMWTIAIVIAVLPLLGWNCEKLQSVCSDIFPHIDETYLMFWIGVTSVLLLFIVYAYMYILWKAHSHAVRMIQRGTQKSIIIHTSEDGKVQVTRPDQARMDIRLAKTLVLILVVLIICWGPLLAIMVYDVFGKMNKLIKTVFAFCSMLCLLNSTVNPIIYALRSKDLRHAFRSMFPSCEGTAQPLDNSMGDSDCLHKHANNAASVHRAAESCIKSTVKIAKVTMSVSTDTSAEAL

[3] = molecular target: T1, hCB2R (human CB2R); test: forskolin-stimulated cAMP accumulation, antagonism; assay type: cell-based
Text: forskolin-stimulated cAMP accumulation, antagonism on hCB2R (human CB2R) | antagonism for CB1R and CB2R with IC50 values in micromolar ranges

[4] = molecular target: T2, CB1R (U2 OS cells, reporter gene assay); test: SRE-luciferase reporter gene assay, antagonism; assay type: cell-based
Text: SRE-luciferase reporter gene assay, antagonism on CB1R (U2 OS cells, reporter gene assay) | antagonism for CB1R and CB2R with IC50 values in micromolar ranges

T1 sequence (P34972 whole entry): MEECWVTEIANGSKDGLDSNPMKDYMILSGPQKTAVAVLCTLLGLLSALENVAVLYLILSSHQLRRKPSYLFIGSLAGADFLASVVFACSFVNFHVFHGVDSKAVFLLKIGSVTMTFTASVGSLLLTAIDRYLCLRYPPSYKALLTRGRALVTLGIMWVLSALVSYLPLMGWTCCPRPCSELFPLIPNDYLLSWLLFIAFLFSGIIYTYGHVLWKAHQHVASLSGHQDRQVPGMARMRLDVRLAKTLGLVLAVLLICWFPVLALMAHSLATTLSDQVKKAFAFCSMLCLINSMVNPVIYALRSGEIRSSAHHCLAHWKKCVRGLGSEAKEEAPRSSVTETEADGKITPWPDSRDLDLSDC

For `CN1CCCCC1Cn1cc(C(=O)c2cc([N+](=O)[O-])ccc2I)c2ccccc21` (centres unmarked) [AM-1241, reference compound], the Ki [1] was 0.0066 µM.
With `CCCCCCC(C)(C)c1cc(O)c2c(c1)OC(C)(C)[C@@H]1CC=C(CO)C[C@@H]21` [Hu-210] the EC50 [2] was 0.000199 µM.
In the case of `C=C[C@@H](/C=C\c1ccc(O)cc1)c1ccc(O)cc1` [cis-hinokiresinol], the IC50 [3] is reported as 72.5 µM, the Ki [1] is reported as 12.2 µM and the IC50 [4] is reported as 11.2 µM.
In the case of `C=C[C@@H](/C=C/c1ccc(O)cc1)c1ccc(O)cc1` [trans-hinokiresinol], the IC50 [3] is reported as 20.5 µM, the Ki [1] is reported as 9.5 µM and the IC50 [4] is reported as 10.2 µM.
